Experimental data reported in US10471032B1, “Substituted glutaurine compounds and substituted glutaurine derivatives” (ThermoLife International, LLC, priority 2013, dated 2019).

How the values were obtained:
[1] = tested on: estradiol and total testosterone; settings: men treated, Taxel et al. (2001); cited from earlier work
[2] = tested on: thyroid stimulating hormone (TSH); test: TSH level in blood samples during oral administration to a human subject; assay type: in vivo; settings: for TSH: blood, one human subject, Day 0 before dosing 3.01
Method: (§1) To evaluate the effect of administration of glutaurine on estradiol and thyroid hormone levels in a human subject, approximately 800 micrograms (mcg) per day of glutaurine were administered orally to the subject over a period of about one month. At Day 0 prior to administration of the glutaurine and at Day 4 and Day 28 during administration of the glutaurine blood samples were collected and analyzed for the levels of estradiol, thyroid stimulating hormone (TSH), and the thyroid hormones triiodothyronine (T3) and thyroxine (T4). Total amounts of T3 and T4 were measured in the blood samples.

estradiol = test: Estradiol level in blood samples during oral administration to a human subject; assay type: in vivo; settings: for Estradiol: blood, one human subject, Day 0 before dosing 36
Method: as §1

human subject = test: Subject-reported effects during administration; assay type: in vivo; settings: oral approx. 800 mcg/day
Method: as §1
The subject also reported fat loss as a result of the glutaurine administration.

triiodothyronine (T3) = test: Total T3 level in blood samples during oral administration to a human subject; assay type: in vivo; settings: for T3: total T3, blood, one human subject, Day 0 before dosing 91
Method: as §1

thyroxine (T4) = test: Total T4 level in blood samples during oral administration to a human subject; assay type: in vivo; settings: for T4: total T4, blood, one human subject, Day 0 before dosing 8.3
Method: as §1

[3] = Day 4 of oral approx. 800 mcg/day
[4] = Day 28 of oral approx. 800 mcg/day
[5] = oral approx. 800 mcg/day for about one month, human subject
[6] = indicative of rising energy expenditure and metabolism

| SMILES | change in estradiol [1] | change in total testosterone [1] | TSH [2, 3] | TSH [2, 4] | change in TSH levels [2, 5] | Estradiol (estradiol; [3]) | Estradiol (estradiol; [4]) | change in estradiol levels (estradiol; [5]) | body fat (subject-reported) (human subject) | body temperature (subject-reported) (human subject; [6]) | sweating (subject-reported) (human subject; [6]) | change in T3 levels (triiodothyronine (T3); [5]) | T3 (triiodothyronine (T3); [3]) | T3 (triiodothyronine (T3); [4]) | change in T4 levels (thyroxine (T4); [5]) | T4 (thyroxine (T4); [3]) | T4 (thyroxine (T4); [4]) |
| --- | --- | --- | --- | --- | --- | --- | --- | --- | --- | --- | --- | --- | --- | --- | --- | --- | --- |
| CC(C)(C#N)c1cc(Cn2cncn2)cc(C(C)(C)C#N)c1 [anastrozole] | significant decrease | increase | – | – | – | – | – | – | – | – | – | – | – | – | – | – | – |
| NC(CCC(=O)NCCS(=O)(=O)O)C(=O)O (centres unmarked) [glutaurine] | – | – | 3.28 mIU/L | 2.74 mIU/L | no significant change | 32 pg/mL | 30 pg/mL | marked decrease | fat loss | increased body temperature | increased sweating | consistent increase | 96 ng/dL | 109 ng/dL | slightly reduced | 7.9 µg/dL | 7.3 µg/dL |
